ΔTm data for 51 molecules are collected here from ChEMBL document CHEMBL5724796, “Tm Shift (DSF) assay results for EUbOPEN Chemogenomics Library” (2024).

By ΔTm is commonly meant the change in melting temperature against a reference sample.

Residues, ends and D or L forms follow the SMILES beside them. *: point of attachment. CH2Cl = ClC*

Assay [1] deals with T1, Peregrin (Homo sapiens) (UniProt P55201).
T1 sequence (whole entry): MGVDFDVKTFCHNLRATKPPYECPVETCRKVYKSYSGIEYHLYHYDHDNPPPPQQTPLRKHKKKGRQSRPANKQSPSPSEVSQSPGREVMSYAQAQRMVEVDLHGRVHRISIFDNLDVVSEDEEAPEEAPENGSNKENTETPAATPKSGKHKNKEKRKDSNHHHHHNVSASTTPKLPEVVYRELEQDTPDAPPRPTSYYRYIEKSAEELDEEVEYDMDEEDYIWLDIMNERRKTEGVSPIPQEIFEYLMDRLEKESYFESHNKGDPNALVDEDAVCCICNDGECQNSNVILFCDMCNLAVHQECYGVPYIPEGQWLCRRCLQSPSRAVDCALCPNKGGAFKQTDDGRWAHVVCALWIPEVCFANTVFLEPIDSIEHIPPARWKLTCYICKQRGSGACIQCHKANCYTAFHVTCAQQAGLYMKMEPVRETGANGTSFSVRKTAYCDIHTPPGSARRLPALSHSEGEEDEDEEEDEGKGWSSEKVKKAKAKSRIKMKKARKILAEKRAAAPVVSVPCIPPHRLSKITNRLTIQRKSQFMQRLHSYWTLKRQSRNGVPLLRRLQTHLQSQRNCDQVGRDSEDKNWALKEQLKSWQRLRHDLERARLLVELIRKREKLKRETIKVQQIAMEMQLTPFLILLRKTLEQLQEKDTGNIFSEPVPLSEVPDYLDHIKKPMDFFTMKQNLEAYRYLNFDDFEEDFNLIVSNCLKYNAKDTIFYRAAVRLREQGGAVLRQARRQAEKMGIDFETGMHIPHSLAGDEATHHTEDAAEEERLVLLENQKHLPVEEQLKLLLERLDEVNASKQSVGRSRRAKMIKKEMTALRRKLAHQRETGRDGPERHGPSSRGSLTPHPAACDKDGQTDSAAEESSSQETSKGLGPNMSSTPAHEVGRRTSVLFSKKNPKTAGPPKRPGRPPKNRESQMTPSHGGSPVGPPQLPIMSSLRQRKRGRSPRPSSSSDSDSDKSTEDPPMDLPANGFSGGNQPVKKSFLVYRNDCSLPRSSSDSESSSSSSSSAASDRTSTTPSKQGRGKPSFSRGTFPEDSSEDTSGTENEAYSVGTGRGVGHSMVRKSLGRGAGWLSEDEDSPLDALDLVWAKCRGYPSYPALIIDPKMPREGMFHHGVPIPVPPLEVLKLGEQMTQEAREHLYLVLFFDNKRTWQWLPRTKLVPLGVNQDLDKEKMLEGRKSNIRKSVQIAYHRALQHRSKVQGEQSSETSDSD
The note with it: Compound concentration 20.0 uM.

Assay [2] has as its target Fibroblast growth factor receptor 2 (Homo sapiens) (UniProt P21802). The note with it: Compound concentration 20.0 uM.
Description: Thermal Shift Assay. Domain: start/stop: T457-E768

Chain of Fibroblast growth factor receptor 2 (Homo sapiens) (P21802 22-821 limits assumed): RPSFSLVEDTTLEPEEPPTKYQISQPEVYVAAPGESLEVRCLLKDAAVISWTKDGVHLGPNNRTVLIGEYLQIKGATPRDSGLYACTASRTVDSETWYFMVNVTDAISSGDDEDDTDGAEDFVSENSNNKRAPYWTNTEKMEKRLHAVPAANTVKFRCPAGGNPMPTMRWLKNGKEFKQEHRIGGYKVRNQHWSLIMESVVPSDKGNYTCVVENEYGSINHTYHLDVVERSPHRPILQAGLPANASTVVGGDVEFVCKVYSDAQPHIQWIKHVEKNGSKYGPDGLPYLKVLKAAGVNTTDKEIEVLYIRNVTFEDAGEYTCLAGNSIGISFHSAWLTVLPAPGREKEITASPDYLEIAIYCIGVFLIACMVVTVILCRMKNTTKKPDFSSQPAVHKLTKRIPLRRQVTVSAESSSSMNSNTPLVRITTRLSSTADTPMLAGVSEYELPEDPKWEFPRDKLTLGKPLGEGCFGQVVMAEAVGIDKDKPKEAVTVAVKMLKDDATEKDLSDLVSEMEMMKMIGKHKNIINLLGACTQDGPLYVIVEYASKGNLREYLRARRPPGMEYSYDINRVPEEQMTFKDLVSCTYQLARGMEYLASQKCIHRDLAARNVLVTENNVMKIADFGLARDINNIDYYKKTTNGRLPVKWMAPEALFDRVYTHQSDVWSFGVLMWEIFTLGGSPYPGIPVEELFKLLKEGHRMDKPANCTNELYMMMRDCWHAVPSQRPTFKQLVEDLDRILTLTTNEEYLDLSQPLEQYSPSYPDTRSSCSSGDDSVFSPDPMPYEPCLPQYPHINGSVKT

For `CS(=O)(=O)c1ccc(-c2nnc(C=Cc3nnc(-c4ccc(C#N)cc4)o3)n2-c2ccccc2Cl)nc1`, the values for the ΔTm in assay [1] (Protein concentration 2.0 uM) and in assay [2] were 2 °C and 0.13 °C, respectively.
`COc1ccc(Cc2nc(O)c3c(C)nc([C@@H](CCCc4ccccc4)[C@@H](C)O)n3n2)cc1OC`: the figures for the ΔTm in assay [1] and in assay [2] were 0.21 °C and 0.51 °C, respectively.
`CNCc1ccc(-c2cc3cc(F)cc(C(N)=O)c3o2)cc1`: the ΔTm in assay [1] stood at 1.32 °C; in assay [2], 0.56 °C.
Regarding `Cc1ccc(C)c(-n2sc3cc(F)ccc3c2=O)c1`, the shift in melting temperature (ΔTm) in assay [1] was -11.8 °C; in assay [2], -0.26 °C.
Taken in the same sequence, the figures for `Cc1[nH]nc(C(F)(F)F)c1Cc1sc2c(c1C(=O)N1C[C@](C)(O)CO1)c(=O)n(C)c(=O)n2C(C)C` were 0.94 °C and 1.06 °C.
For `O=C(NC1CCC1)c1ccc2nc(-c3cccc(NS(=O)(=O)NCCN4CCCCC4)c3)cn2c1` the same measures were 1.25 °C and -0.11 °C.
For `CCn1c(=S)[nH]c2cc3c(NCc4ccccc4N4CCC(CO)CC4)ncnc3cc21`, the results for the ΔTm in assay [1] and in assay [2] were 1.64 °C and -0.06 °C, respectively.
Turning to `CC#C[C@]1(O)CC[C@H]2[C@@H]3CCC4=CC(=O)CCC4=C3[C@@H](c3ccc(N(C)C)cc3)C[C@@]21C`, the ΔTm in assay [1] is -2.63 °C; in assay [2], 0.14 °C.
For `CN(CCCCCCNc1ccnc2cc(Cl)ccc12)CCCCCCNc1ccnc2cc(Cl)ccc12` the same measures were 0.99 °C and 0.43 °C.
In the case of `CNCC[C@@H](Oc1ccccc1C)c1ccccc1`, the thermal shift (ΔTm) is -1.53 °C in assay [1] and 0.34 °C in assay [2].
Taken in the same sequence, the figures for `CC(=O)N[C@@H](CC(C)C)C(=O)N[C@@H](CCC(=O)O)C(=O)N[C@@H](Cc1cnc[nH]1)C(=O)N[C@@H](CC(=O)O)C(=O)CCl` (Ac-LEHD-CH2Cl) were -1.13 °C and 0.65 °C.
As for `O=C(N1CCCC[C@@H]1Cc1ccccc1)n1cc(-c2ccc(-c3ccccc3)cc2)nn1`, the figures for the thermal shift (ΔTm) in assay [1] and in assay [2] were 0.6 °C and 0 °C, respectively.
For `Cc1ccc([N+](=O)[O-])cc1S(=O)(=O)N(C)C` the same measures were 2.57 °C and -0.67 °C.
For `c1cncc(-c2cnn[nH]2)c1` the same measures were 0.36 °C and 0.33 °C.
For the molecule `O=C(NCCc1cc(C(=O)NO)no1)c1ccc(Cl)c(Cl)c1`, the ΔTm in assay [1] is -1.25 °C; in assay [2], 0.8 °C.
For `COc1cc(Nc2ncc(F)c(Nc3ccc4c(n3)N(COP(=O)(O)O)C(=O)C(C)(C)O4)n2)cc(OC)c1OC` the same measures were -0.81 °C and 4.69 °C.
For `Cn1ncnc1[C@H]1C2=c3c(cc(F)cc3=N[C@@H]1c1ccc(F)cc1)C(=O)NN2` the same measures were 3.07 °C and 0.09 °C.
For the molecule `O=C(NCCCCc1ccccc1)n1c(=O)oc2cc(-c3ccc(F)cc3)ccc21`, the results for the ΔTm in assay [1] and in assay [2] were 2.4 °C and -0.32 °C, respectively.
In the case of `COc1ccc([C@@H]2CNC(=O)C2)cc1OC1CCCC1`, the ΔTm is 0.39 °C in assay [1] and -0.37 °C in assay [2].
Taken in the same sequence, the figures for `C[C@@H](COCCC(=O)N1CCN(c2ncc(C(F)(F)F)cn2)CC1)Nc1cn[nH]c(=O)c1C(F)(F)F` were 0.01 °C and 0.24 °C.
Taken in the same sequence, the figures for `CC(C)(F)C[C@H](N[C@@H](c1ccc(-c2ccc(S(C)(=O)=O)cc2)cc1)C(F)(F)F)C(=O)NC1(C#N)CC1` were -1.04 °C and 0.18 °C.
In the case of `N#C[C@@H]1C[C@@H]2C[C@@H]2N1C(=O)[C@@H](N)C12CC3CC(CC(O)(C3)C1)C2`, the ΔTm in assay [1] was -0.63 °C; in assay [2], 0.29 °C.
Taken in the same sequence, the figures for `CCc1nc2c(C)cc(N3CCN(CC(=O)N4CC(O)C4)CC3)cn2c1N(C)c1nc(-c2ccc(F)cc2)c(C#N)s1` were -0.12 °C and 0.26 °C.
`N#Cc1cc2cc(CN3CCC(Nc4ncnc5sc(CC(F)(F)F)cc45)CC3)ccc2[nH]1`: the values for the thermal shift (ΔTm) in assay [1] and in assay [2] were 1.21 °C and 0.16 °C, respectively.
Regarding `COc1ccc(N(C(=O)Oc2c(C)cccc2C)c2ccnc(Nc3ccc(N4CCN(C)CC4)cc3)n2)c(OC)c1`, the values for the shift in melting temperature (ΔTm) in assay [1] and in assay [2] were -1.1 °C and 4.44 °C, respectively.
For `CNc1nccc(CN(CC2CCNCC2)S(=O)(=O)c2ccc(S(=O)(=O)N(Cc3ccc(Cl)cc3)C3CCCC3)cc2)n1` the same measures were 1.3 °C and -0.24 °C.
For `C[C@]12CC[C@@H]3c4ccc(O)cc4C[C@@H](CCCCCCCCC[S+]([O-])CCCC(F)(F)C(F)(F)F)[C@H]3[C@@H]1CC[C@@H]2O` (some centres not stated) the same measures were 0 °C and -3.24 °C.
Take `COc1ncc(C)c(-c2ccc3c(c2)[nH]c(=O)c2cnn([C@H]4CCOC4)c23)c1C`: the ΔTm is 0.86 °C in assay [1] and -0.58 °C in assay [2].
For the molecule `COc1ccc(CC[C@H]2CCC[C@@H](CCc3ccc(OC)cc3)N2C[C@@H](O)CO)cc1`, the ΔTm was 0.69 °C in assay [1] and -0.53 °C in assay [2].
For `CCCc1nc(C)c2c(C)nc3ccc(OC)nc3n12`, the ΔTm in assay [1] was -0.07 °C; in assay [2], -0.53 °C.
For `C/C(=N\NC(=O)c1cccc(S(=O)(=O)N2CCOCC2)c1)c1cc(Cl)ccc1O` the same measures were 2.44 °C and -0.21 °C.
Regarding `CN(C)CCCCC(=O)Nc1ccc(NC(=S)NC(=O)c2ccc(C(C)(C)C)cc2)cc1`, the ΔTm in assay [1] was -0.35 °C; in assay [2], -0.03 °C.
Consider `Cc1cc(C(=O)N2CCN(C3CN(C(=O)c4ccc(-c5ccccc5)cc4)C3)CC2)no1`, for which the shift in melting temperature (ΔTm) in assay [1] is -1.49 °C; in assay [2], 1.38 °C.
Taken in the same sequence, the figures for `O=c1[nH]c(Oc2cnn(Cc3ccccc3)c2)nc2cnccc12` were 3.09 °C and -0.24 °C.
In the case of `C=CCc1cccc(CNc2nc3ccccc3n2CCC)c1O`, the ΔTm worked out at 4.18 °C in assay [1] and 0.14 °C in assay [2].
As to `COc1c(CN)cc(CN)cc1OCCCN1Cc2ccccc2C1`, the ΔTm came to 0.41 °C in assay [1] and 0.36 °C in assay [2].
Taken in the same sequence, the figures for `COc1ccc(-n2c(SCCCN3C(=O)c4cccc5cccc(c45)C3=O)nnc2-c2ccncc2)cc1` were 0.39 °C and 0.21 °C.
Consider `COc1cccc(-c2nccc3c2CN(c2ccccc2)C3=O)c1`, for which the ΔTm in assay [1] was -0.63 °C; in assay [2], 0.77 °C.
Taken in the same sequence, the figures for `Cc1cc(C)c(-c2[nH]nc(C)c2C)cc1C(=O)N1CC(c2ccc(C#N)cc2)C1` were -1.03 °C and -0.22 °C.
Turning to `O=C(NCCCOc1ccc2[nH]c(=O)ccc2c1)N(C1CC1)[C@@H]1CCCC[C@H]1O`, the ΔTm in assay [1] came out at 1.1 °C; in assay [2] it was 0.24 °C.
Turning to `COc1ccc(C(=O)N[C@H](C(=O)N2CCC[C@H]2C(=O)N[C@H](C(=O)C(F)(F)F)C(C)C)C(C)C)cc1`, the ΔTm in assay [1] was 0.8 °C; in assay [2] it was 0.07 °C.
For `CC(=O)N[C@@H](CCCCNC(=O)CSCCNC(=O)CCNC(=O)[C@H](O)C(C)(C)COP(=O)(O)OP(=O)(O)OC[C@H]1O[C@@H](n2cnc3c(N)ncnc32)[C@H](O)[C@@H]1OP(=O)(O)O)C(N)=O` the same measures were 1.95 °C and 0.51 °C.
Taken in the same sequence, the figures for `O=S(=O)(O)c1ccc2cc(/N=N/c3cc(S(=O)(=O)O)c4cccnc4c3O)ccc2c1` were -0.89 °C and -0.08 °C.
Taken in the same sequence, the figures for `C[C@H]1CO[C@@H]2Cn3cc(C(=O)NCc4ccc(F)cc4F)c(=O)c(O)c3C(=O)N12` were 2.22 °C and 0.45 °C.
In the case of `CCOC(=O)c1ccc(-c2ccc(OC(=O)N(C)Cc3cccc(-c4ccncc4)c3)cc2)cc1`, the thermal shift (ΔTm) in assay [1] is 3.12 °C; in assay [2] it was -0.28 °C.
Taken in the same sequence, the figures for `CC(=O)N[C@@H](CC(C)C)C(=O)N[C@@H](CCC(=O)O)C(=O)N[C@@H](Cc1cnc[nH]1)C(=O)N[C@H](C=O)CC(=O)O` (Ac-LEHD-aldehyde) were -1.22 °C and 0.53 °C.
On to `CN(C(=O)CCCOc1ccc2[nH]c(=O)ccc2c1)C1CCCCC1`, for which the values for the shift in melting temperature (ΔTm) in assay [1] and in assay [2] were 1.74 °C and -0.58 °C, respectively.
For `C[C@H](Nc1nc2c(cnn2C2CCCC2)c(=O)[nH]1)c1ccc(Cl)cc1` the same measures were 1.99 °C and 0.2 °C.
On to `N=C(N)SCc1ccc(CN2C(=O)C(=O)c3cc(C(F)(F)F)ccc32)cc1`, for which the shift in melting temperature (ΔTm) in assay [1] amounted to 0.27 °C; in assay [2], 0.77 °C.
Taken in the same sequence, the figures for `Cc1ccc2[nH]c(-n3nc(C)c(Cc4ccccc4)c3O)nc2c1` were 0.31 °C and -0.11 °C.
For `CC(C)(C)NS(=O)(=O)c1ccc(NC(=O)[C@H](Cc2ccccc2)NC(=O)c2ccc(F)cc2)cc1` the same measures were 0.73 °C and 0.56 °C.
